From patent US20030130343A1, “Fat accumulation-modulating compounds” (AdipoGenix, Inc., priority 2001, published 2003)

Columns and labels:
[1] = tested on: primary human subcutaneous preadipocytes; experiment: High throughput screening of compound efficacy: fluorescent fatty acid (FA*) accumulation in differentiating human preadipocytes; assay type: cell-based; set-up: key to Relative Efficacy: “+++” designates a greater in vitro efficacy than “++”; “++”, which in turn is greater than “+”; “+”; settings: for Relative Efficacy: inhibitors of fatty acid accumulation into differentiating adipocytes at a concentration of 100 nM
Protocol: Protocol for High Throughput Screening of Compound Efficacy on Human Preadipocytes Up to five cell strains of banked primary human subcutaneous preadipocytes were used for high throughput screening. […] Cells were split up to four times to produce enough cells for screening. […] On day zero, cells were incubated with growth medium to induce differentiation of preadipocytes into adipocytes (characterized by cell rounding, formation of triglyceride droplets, etc.). Growth medium was changed every three days. On day six, cells were incubated in triplicate with test compounds at various concentrations. […] Cell plates were prewashed with FAB+, and then FA* was added. Cells were incubated with FA* for four hours, and then postwashed with FAB+ to remove unincorporated FA*. Cellular fluorescence of triglyceride droplets that have incorporated FA* was measured on a microplate reader. Efficacy of compounds on inhibiting FA* accumulation was determined by the following calculation: […]

mice = settings: single injections; cited from earlier work
[2] = tested on: primary human subcutaneous preadipocytes; settings: at 10 μM; Alamar Blue
Protocol: Subsequent determination of compound toxicity was measured by incubating cells with Alamar Blue (an indicator of cellular viability, purchased from BioSource International Inc., Camarillo, Calif., USA) for three to four hours before measuring fluorescence of the reduced compound. Toxicity of compounds was determined by the following calculation:
% Toxicity=100−(sample fluorescence/negative control fluorescence*100)

Structure (SMILES) | Relative Efficacy [1] | other results
O=C(Nc1ccncc1)c1cc([N+](=O)[O-])ccc1Cl [AGX-0104] | +++ | 
O=C(Nc1cccnc1)c1cc([N+](=O)[O-])ccc1Cl [AGX-0105] | +++ | 
Cc1cc(NC(=O)c2cc([N+](=O)[O-])ccc2Cl)no1 [AGX-0114] | ++ | 
C=C1C(=O)OC(CCCCCCCC)C1C(=O)O (stereo not drawn) [C75] |  | ate less than untreated littermates consumed (mice): 90%
N#CC(C#N)=NNc1ccc(OC(F)(F)F)cc1 [FCCP, carbonyl cyanide p-(trifluoromethoxy)-phenylhydrazone] |  | % Toxicity [2]: 100%; Emax at 10 µM ([1]; Homo sapiens, at 10 μM, read-out: % Efficacy (inhibiting FA* accumulation)): 100%
